The source made the active and inactive calls. No cut-off for these calls is given here.
What was measured:
[1] = target: Leucine-rich repeat serine/threonine-protein kinase 2 (Homo sapiens) (UniProt Q5S007); conditions: Compound concentration 1000.0 nM
[2] = target: Casein kinase I isoform delta (Homo sapiens) (UniProt P48730); conditions: Compound concentration 1000.0 nM
[3] = target: Alpha-1B adrenergic receptor (Homo sapiens) (UniProt P35368); conditions: Compound concentration 10.0 uM
[4] = target: Ribosomal protein S6 kinase alpha-3 (Homo sapiens) (UniProt P51812); conditions: Compound concentration 1000.0 nM
Ribosomal protein S6 kinase alpha-3 (Homo sapiens), sequence (P51812 whole entry): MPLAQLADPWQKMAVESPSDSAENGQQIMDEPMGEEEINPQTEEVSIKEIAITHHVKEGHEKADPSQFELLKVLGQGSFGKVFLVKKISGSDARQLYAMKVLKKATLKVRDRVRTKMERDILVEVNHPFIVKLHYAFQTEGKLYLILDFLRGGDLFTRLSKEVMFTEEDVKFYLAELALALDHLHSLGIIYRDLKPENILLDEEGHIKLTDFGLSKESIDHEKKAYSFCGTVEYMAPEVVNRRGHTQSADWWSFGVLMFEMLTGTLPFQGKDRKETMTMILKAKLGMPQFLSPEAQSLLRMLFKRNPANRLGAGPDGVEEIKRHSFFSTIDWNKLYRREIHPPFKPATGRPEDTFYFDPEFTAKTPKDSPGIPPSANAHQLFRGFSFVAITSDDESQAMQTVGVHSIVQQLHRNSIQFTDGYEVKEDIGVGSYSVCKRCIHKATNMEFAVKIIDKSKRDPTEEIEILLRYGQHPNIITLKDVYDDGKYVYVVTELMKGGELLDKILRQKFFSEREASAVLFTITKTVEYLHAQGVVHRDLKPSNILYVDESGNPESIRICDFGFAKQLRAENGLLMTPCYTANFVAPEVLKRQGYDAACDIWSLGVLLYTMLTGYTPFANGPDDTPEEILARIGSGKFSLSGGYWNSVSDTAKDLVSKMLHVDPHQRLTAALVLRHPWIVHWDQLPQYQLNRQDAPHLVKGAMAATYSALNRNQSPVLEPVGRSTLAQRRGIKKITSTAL

[5] = target: Membrane-associated tyrosine- and threonine-specific cdc2-inhibitory kinase (Homo sapiens) (UniProt Q99640); conditions: Compound concentration 1000.0 nM
Membrane-associated tyrosine- and threonine-specific cdc2-inhibitory kinase (Homo sapiens), sequence (Q99640 whole entry): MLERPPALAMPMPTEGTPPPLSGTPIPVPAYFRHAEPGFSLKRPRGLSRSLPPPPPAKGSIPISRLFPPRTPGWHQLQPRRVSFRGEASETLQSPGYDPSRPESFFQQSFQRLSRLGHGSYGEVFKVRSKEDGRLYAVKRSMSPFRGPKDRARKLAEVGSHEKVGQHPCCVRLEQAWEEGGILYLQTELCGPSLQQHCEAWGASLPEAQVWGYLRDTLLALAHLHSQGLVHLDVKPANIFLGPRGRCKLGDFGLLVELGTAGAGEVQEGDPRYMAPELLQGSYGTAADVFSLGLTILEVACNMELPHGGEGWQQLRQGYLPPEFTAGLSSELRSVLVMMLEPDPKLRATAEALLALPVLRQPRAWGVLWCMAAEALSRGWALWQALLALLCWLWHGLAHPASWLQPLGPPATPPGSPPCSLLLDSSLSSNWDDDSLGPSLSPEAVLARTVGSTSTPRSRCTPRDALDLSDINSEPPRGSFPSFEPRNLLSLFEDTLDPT

[6] = target: Somatostatin receptor type 4 (Homo sapiens) (UniProt P31391); assay: sst4 (h) Eurofins-Cerep Cellular and Nuclear Receptor Functional Assays; conditions: Compound concentration 10.0 uM
Somatostatin receptor type 4 (Homo sapiens), sequence (P31391 whole entry): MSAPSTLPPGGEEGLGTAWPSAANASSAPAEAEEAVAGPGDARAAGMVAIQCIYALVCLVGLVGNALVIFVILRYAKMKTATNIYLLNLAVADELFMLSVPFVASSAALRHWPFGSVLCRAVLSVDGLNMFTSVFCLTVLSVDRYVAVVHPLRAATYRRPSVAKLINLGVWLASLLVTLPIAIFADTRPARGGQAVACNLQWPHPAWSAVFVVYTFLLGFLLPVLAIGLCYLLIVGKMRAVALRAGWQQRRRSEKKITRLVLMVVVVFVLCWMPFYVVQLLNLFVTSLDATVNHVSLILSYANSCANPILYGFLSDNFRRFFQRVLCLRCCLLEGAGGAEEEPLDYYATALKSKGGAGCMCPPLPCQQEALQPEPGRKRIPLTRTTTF

[7] = target: Dual specificity mitogen-activated protein kinase kinase 6 (Homo sapiens) (UniProt P52564); conditions: Compound concentration 1000.0 nM
Dual specificity mitogen-activated protein kinase kinase 6 (Homo sapiens), sequence (P52564 whole entry): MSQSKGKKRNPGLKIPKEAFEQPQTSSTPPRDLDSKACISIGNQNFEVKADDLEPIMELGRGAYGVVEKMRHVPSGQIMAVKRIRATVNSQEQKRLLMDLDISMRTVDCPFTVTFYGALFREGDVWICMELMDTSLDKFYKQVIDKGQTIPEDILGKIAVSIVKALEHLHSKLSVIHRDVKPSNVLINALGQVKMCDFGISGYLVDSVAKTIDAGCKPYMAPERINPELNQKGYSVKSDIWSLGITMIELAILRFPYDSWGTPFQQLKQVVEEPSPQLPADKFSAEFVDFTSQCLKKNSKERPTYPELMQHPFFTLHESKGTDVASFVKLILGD

[8] = target: Ribosomal protein S6 kinase alpha-6 (Homo sapiens) (UniProt Q9UK32); conditions: Compound concentration 1000.0 nM
[9] = target: Ephrin type-B receptor 4 (Homo sapiens) (UniProt P54760); conditions: Compound concentration 1000.0 nM
[10] = tested on: Leucine-rich repeat serine/threonine-protein kinase 2 (Homo sapiens), Q5S007 [G2019S]; conditions: Compound concentration 1000.0 nM
[11] = target: Serine/threonine-protein kinase pim-1 (Homo sapiens) (UniProt P11309); conditions: Compound concentration 1000.0 nM
[12] = target: Dual specificity mitogen-activated protein kinase kinase 7 (Homo sapiens) (UniProt O14733); conditions: Compound concentration 1000.0 nM
[13] = target: Serine/threonine-protein kinase 32B (Homo sapiens) (UniProt Q9NY57); conditions: Compound concentration 1000.0 nM
[14] = tested on: Epidermal growth factor receptor (Homo sapiens), P00533 [G719C]; conditions: Compound concentration 1000.0 nM
[15] = target: Wee1-like protein kinase (Homo sapiens) (UniProt P30291); conditions: Compound concentration 1000.0 nM
Rattus norvegicus = species on record: Rattus norvegicus; conditions: Compound concentration 10.0 uM
[16] = target: LIM domain kinase 2 (Homo sapiens) (UniProt P53671); conditions: Compound concentration 1000.0 nM
[17] = target: Tyrosine-protein kinase Fgr (Homo sapiens) (UniProt P09769); conditions: Compound concentration 1000.0 nM
[18] = target: Dual specificity mitogen-activated protein kinase kinase 4 (Homo sapiens) (UniProt P45985); conditions: Compound concentration 1000.0 nM
[19] = target: Ephrin type-A receptor 4 (Homo sapiens) (UniProt P54764); conditions: Compound concentration 1000.0 nM
[20] = target: Cyclin-dependent kinase 9 (Homo sapiens) (UniProt P50750); conditions: Compound concentration 1000.0 nM
[21] = target: SRSF protein kinase 3 (Homo sapiens) (UniProt Q9UPE1); conditions: Compound concentration 1000.0 nM
[22] = target: Ephrin type-A receptor 3 (Homo sapiens) (UniProt P29320); conditions: Compound concentration 1000.0 nM
[23] = target: 5-hydroxytryptamine receptor 7 (Homo sapiens) (UniProt P34969); conditions: Compound concentration 10.0 uM
[24] = tested on: Proto-oncogene tyrosine-protein kinase receptor Ret (Homo sapiens), P07949 [V804L]; conditions: Compound concentration 1000.0 nM
[25] = target: Proteinase-activated receptor 4 (Homo sapiens, UniProt Q96RI0); assay: Functional cellular assay (HEK cells) (F2RL3)
[26] = target: Rhodopsin kinase GRK1 (Homo sapiens) (UniProt Q15835); conditions: Compound concentration 1000.0 nM
Rhodopsin kinase GRK1 (Homo sapiens), sequence (Q15835 whole entry): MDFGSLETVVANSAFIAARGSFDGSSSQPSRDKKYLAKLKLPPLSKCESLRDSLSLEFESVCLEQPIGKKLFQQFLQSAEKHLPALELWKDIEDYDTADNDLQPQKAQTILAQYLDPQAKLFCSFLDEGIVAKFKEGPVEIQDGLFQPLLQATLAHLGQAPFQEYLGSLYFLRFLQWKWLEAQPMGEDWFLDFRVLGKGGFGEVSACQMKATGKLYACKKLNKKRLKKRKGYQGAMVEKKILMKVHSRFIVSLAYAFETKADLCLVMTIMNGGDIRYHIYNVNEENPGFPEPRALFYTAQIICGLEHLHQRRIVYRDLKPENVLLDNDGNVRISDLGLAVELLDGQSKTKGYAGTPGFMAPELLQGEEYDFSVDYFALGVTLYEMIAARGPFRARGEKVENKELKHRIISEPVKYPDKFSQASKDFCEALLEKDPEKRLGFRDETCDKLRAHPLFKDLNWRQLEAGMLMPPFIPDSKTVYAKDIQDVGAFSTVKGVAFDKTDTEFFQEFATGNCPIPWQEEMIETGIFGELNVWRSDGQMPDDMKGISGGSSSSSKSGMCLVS

[27] = target: Tyrosine-protein kinase TXK (Homo sapiens) (UniProt P42681); conditions: Compound concentration 1000.0 nM
Tyrosine-protein kinase TXK (Homo sapiens), sequence (P42681 whole entry): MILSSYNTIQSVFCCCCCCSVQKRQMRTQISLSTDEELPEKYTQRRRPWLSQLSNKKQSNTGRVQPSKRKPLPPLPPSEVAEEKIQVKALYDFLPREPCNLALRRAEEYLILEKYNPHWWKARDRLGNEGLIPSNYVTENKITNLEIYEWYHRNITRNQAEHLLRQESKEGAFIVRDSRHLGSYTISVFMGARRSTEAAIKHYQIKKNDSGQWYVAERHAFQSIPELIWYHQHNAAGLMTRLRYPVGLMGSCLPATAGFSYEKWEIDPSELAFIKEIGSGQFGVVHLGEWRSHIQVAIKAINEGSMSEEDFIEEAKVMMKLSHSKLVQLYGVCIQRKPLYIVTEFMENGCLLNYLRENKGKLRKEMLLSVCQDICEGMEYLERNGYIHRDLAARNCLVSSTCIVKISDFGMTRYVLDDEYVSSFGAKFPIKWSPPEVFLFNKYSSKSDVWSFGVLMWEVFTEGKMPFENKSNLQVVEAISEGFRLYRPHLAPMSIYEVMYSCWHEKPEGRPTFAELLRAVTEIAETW

[28] = target: Beta-2 adrenergic receptor (Homo sapiens) (UniProt P07550); assay: beta2 (h) Eurofins-Cerep Cellular and Nuclear Receptor Functional Assays; conditions: Compound concentration 10.0 uM
Beta-2 adrenergic receptor (Homo sapiens), sequence (P07550 whole entry, looked up): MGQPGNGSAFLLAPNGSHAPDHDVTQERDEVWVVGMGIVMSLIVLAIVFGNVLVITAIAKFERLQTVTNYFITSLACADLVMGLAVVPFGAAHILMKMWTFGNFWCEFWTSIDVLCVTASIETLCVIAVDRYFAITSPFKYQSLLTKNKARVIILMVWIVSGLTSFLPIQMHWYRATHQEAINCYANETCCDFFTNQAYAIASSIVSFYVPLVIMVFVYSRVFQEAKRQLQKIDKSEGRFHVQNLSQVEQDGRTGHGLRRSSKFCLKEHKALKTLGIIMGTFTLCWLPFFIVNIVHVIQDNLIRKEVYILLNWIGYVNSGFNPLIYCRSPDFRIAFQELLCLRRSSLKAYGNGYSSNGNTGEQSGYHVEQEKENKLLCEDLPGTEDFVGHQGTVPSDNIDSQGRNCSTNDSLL

[29] = target: Myosin-IIIb (Homo sapiens) (UniProt Q8WXR4); conditions: Compound concentration 1000.0 nM
[30] = target: Serine/threonine-protein kinase BRSK2 (Homo sapiens) (UniProt Q8IWQ3); conditions: Compound concentration 1000.0 nM
[31] = tested on: Tyrosine-protein kinase ABL1 (Homo sapiens), P00519 [Q252H]; conditions: Compound concentration 1000.0 nM
[32] = tested on: Epidermal growth factor receptor (Homo sapiens), P00533 [UNDEFINED MUTATION]; conditions: Compound concentration 1000.0 nM
[33] = target: D(1A) dopamine receptor (Homo sapiens) (UniProt P21728); assay: D1 (h) Eurofins-Cerep Cellular and Nuclear Receptor Functional Assays; conditions: Compound concentration 10.0 uM
D(1A) dopamine receptor (Homo sapiens), sequence (P21728 whole entry): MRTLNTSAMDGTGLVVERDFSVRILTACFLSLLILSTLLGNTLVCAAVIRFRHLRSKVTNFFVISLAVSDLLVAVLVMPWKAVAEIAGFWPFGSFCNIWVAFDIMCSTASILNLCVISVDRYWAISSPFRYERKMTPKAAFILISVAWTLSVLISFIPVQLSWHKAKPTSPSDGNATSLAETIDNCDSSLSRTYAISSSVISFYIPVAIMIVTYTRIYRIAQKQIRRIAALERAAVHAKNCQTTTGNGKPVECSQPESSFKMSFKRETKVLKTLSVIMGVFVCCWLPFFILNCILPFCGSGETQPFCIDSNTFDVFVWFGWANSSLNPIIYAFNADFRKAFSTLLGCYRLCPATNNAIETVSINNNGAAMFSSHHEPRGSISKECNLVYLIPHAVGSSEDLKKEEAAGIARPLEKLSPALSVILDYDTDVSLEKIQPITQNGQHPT

[34] = target: Serine/threonine-protein kinase Chk2 (Homo sapiens) (UniProt O96017); conditions: Compound concentration 1000.0 nM
Serine/threonine-protein kinase Chk2 (Homo sapiens), sequence (O96017 whole entry): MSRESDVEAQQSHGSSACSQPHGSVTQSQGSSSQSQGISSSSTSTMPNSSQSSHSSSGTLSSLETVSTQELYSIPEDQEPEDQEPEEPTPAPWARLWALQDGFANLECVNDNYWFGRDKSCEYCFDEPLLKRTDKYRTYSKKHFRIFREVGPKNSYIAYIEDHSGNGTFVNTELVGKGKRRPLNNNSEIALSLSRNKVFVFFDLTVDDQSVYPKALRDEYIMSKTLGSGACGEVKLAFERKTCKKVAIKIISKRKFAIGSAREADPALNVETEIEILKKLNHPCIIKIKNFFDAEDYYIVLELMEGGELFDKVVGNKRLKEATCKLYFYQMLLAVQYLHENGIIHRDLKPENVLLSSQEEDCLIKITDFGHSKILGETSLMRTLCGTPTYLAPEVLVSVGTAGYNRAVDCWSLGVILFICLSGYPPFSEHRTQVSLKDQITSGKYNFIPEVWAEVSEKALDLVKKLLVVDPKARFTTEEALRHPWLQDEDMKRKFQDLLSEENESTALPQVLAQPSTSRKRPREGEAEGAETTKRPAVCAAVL

[35] = target: T1, Proteinase-activated receptor 1 (Homo sapiens, UniProt P25116); assay: Functional cellular assay (HEK cells) (F2R)
T1 sequence (P25116 whole entry): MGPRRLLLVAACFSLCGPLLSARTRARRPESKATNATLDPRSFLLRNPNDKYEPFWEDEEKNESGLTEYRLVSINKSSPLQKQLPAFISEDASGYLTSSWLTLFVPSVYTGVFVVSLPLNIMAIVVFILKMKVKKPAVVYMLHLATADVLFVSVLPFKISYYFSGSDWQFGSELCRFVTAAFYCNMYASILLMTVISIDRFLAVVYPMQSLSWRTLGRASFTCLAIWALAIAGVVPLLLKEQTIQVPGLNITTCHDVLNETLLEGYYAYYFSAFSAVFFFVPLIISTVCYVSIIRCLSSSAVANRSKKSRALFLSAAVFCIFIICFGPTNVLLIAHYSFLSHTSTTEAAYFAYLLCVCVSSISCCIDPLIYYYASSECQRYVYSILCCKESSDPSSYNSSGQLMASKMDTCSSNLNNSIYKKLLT

Alpha-1B adrenergic receptor (Homo sapiens), sequence (P35368 whole entry): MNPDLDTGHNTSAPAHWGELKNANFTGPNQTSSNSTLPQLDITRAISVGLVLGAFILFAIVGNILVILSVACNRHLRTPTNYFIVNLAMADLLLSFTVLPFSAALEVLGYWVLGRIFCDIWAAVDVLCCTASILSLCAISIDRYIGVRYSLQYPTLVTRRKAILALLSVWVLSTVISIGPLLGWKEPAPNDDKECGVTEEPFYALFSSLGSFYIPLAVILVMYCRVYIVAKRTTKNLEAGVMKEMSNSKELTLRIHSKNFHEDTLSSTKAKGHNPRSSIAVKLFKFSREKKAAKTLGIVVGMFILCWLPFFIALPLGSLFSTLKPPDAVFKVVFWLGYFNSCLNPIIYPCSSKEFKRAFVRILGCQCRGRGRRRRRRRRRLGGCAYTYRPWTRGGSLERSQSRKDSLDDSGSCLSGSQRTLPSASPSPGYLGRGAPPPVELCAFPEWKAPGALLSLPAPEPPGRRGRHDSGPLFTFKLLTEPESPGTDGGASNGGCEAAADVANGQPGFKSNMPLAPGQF

| SMILES | residual activity [1] [%] | residual activity [2] [%] | inhibition [3] [%] | residual activity [4] [%] | residual activity [5] [%] | % Inhibition of Control Agonist Response (Mean n=2) [6] [%] | % of Control Agonist Response (Mean n=2) [6] [%] | residual activity [7] [%] | residual activity [8] [%] | residual activity [9] [%] | residual activity [10] [%] | residual activity [11] [%] | residual activity [12] [%] | residual activity [13] [%] | residual activity [14] [%] | residual activity [15] [%] | inhibition (Rattus norvegicus) [%] | residual activity [16] [%] | residual activity [17] [%] | residual activity [18] [%] | also measured |
| --- | --- | --- | --- | --- | --- | --- | --- | --- | --- | --- | --- | --- | --- | --- | --- | --- | --- | --- | --- | --- | --- |
| O=C(N1CCS(=O)(=O)CC1)N1C[C@H](c2ccc(OC(F)(F)F)cc2)C[C@H](c2nc(C3CC3)no2)C1 [BAY-386] | 100 | 100 | 14.2 | 100 | 100 | -3.3 | -13 | 100 | 100 | 100 | 100 | 100 | 100 | 100 | 97 | 100 | 14.9 | 95 | 100 | 95 | residual activity [19]: 100%; residual activity [20]: 100%; residual activity [21]: 100%; residual activity [22]: 100%; inhibition [23]: -0.77%; residual activity [24]: 99%; IC50 [25]: > 10 µM (not active); residual activity [26]: 92%; residual activity [27]: 100%; % Inhibition of Control Agonist Response (Mean n=2) [28]: -6.9%; % of Control Agonist Response (Mean n=2) [28]: -1.7%; residual activity [29]: 89%; residual activity [30]: 100%; residual activity [31]: 100%; residual activity [32]: 55%; % Inhibition of Control Agonist Response (Mean n=2) [33]: -31.6%; % of Control Agonist Response (Mean n=2) [33]: -1.4%; residual activity [34]: 100%; IC50 [35]: 0.01 µM (active) |
| Cc1noc([C@H]2C[C@@H](c3ccc(C(F)(F)F)cc3)CN(C(=O)N3CCS(=O)(=O)C3)C2)n1 [BAY-448] | 65 | 100 | -1.18 | 100 | 100 | 1.2 | -2 | 100 | 100 | 100 | 94 | 100 | 100 | 68 | 100 | 100 | 7.2 | 100 | 100 | 100 | residual activity [19]: 100%; residual activity [20]: 100%; residual activity [21]: 100%; residual activity [22]: 100%; inhibition [23]: 21.8%; residual activity [24]: 100%; IC50 [25]: > 5 µM (not active); residual activity [26]: 82%; residual activity [27]: 92%; % Inhibition of Control Agonist Response (Mean n=2) [28]: 10.2%; % of Control Agonist Response (Mean n=2) [28]: 2.3%; residual activity [29]: 100%; residual activity [30]: 100%; residual activity [31]: 100%; residual activity [32]: 84%; % Inhibition of Control Agonist Response (Mean n=2) [33]: 13.9%; % of Control Agonist Response (Mean n=2) [33]: -1.2%; residual activity [34]: 100%; IC50 [35]: > 10 µM (not active) |

— ChEMBL document CHEMBL4507269, “Data for DCP probe BAY-386” (2021)
